The experiment has as its system mitochondrial membrane potential (MMP) in HepG2 cells. The experiment can be described thus: qHTS mitochondrial membrane potential (MMP) assay with m-MPI dye, multiplexed with CellTiter-Glo cell viability. Format: cell-based, human. The settings on record: for MMP assay activity outcome (active antagonist / inactive / inconclusive): call from triplicate runs, multichannel readout and cell viability; for Emax: read-out: Efficacy.

Setting [1] is: Homo sapiens, HepG2 cells, 1 hr treatment, ratio 590 nm/535 nm, read-out: IC50 in the MMP assay (decrease of MMP).
Setting [2] is: Table S4, 20 most potent active compounds for the MMP screen, HepG2, 1 hr.
The mark [3] stands for this setting: Table S4, 20 most potent active compounds for the MMP screen, HepG2, 1 hr, read-out: Potency.
[4] abbreviates: Homo sapiens, HepG2, 1 h, read-out: Potency.

Structures can show the parent of a compound that is named as a salt. Where two headings read alike, the source gives them in different places.

As for `CCCCCCCCCCCCOC(=O)c1ccc(O)cc1` [dodecylparaben], the IC50 (HepG2 cells, 1 hr treatment, ratio 590 nm/535 nm, read-out: IC50 in the MMP assay (decrease of MMP)) came to 4200 nM. Regarding `CCCOC(=O)c1ccc(O)cc1` [propylparaben], the IC50 under setting [1] was determined as 38600 nM.

For `CC[C@@]1(O)C[C@H](O[C@H]2C[C@H](N(C)C)[C@H](O[C@H]3C[C@H](O)[C@H](O[C@H]4CCC(=O)[C@H](C)O4)[C@H](C)O3)[C@H](C)O2)c2c(cc3c(c2O)C(=O)c2c(O)cccc2C3=O)[C@H]1C(=O)OC` [aclarubicin hydrochloride, reference compound], for the setting “HepG2 cells, 1 hr treatment”, the “MMP assay activity outcome (active antagonist / inactive / inconclusive)” value was “active”. With `COc1cccc2c1C(=O)c1c(O)c3c(c(O)c1C2=O)C[C@@](O)(C(=O)CO)C[C@@H]3O[C@H]1C[C@H](N)[C@H](O)[C@H](C)O1` [adriamycin hydrochloride, reference compound], the “MMP assay activity outcome (active antagonist / inactive / inconclusive)” value (HepG2 cells, 1 hr treatment) was “inactive”.

With `CO[C@@H]1[C@H](O)C[C@@H](O[C@@H]2C[C@H](Oc3cc4cc5c(c(O)c4c(O)c3C)C(=O)[C@@H](O[C@H]3C[C@@H](O[C@H]4C[C@@H](O[C@H]6C[C@](C)(O)[C@@H](OC(C)=O)[C@H](C)O6)[C@H](O)[C@@H](C)O4)[C@H](O)[C@@H](C)O3)[C@H]([C@H](OC)C(=O)[C@@H](O)[C@@H](C)O)C5)O[C@H](C)[C@@H]2OC(C)=O)O[C@@H]1C` [chromomycin A3], for the setting “HepG2 cells, 1 hr treatment”, the “MMP assay activity outcome (active antagonist / inactive / inconclusive)” value is “active”. Consider `C[C@@H]1O[C@@H](O[C@H]2C[C@@H](O)[C@]3(CO)[C@H]4[C@H](O)C[C@]5(C)[C@@H](C6=CC(=O)OC6)CC[C@]5(O)[C@@H]4CC[C@]3(O)C2)[C@H](O)[C@H](O)[C@H]1O` [ouabain, reference compound], for which the “Potency rank in the MMP screen” value (HepG2 cells, 1 hr treatment) is recorded as “among the most potent compounds”. On to `Oc1c(Cl)c(Cl)c(Cl)c(Cl)c1Cl` [2,3,4,5,6-pentachlorophenol], for which the “MMP assay activity outcome (active antagonist / inactive / inconclusive)” value (HepG2 cells, 1 hr treatment) is “active”. As for `[OH-].c1cc[c]([Sn+]([c]2ccccc2)[c]2ccccc2)cc1` [Triphenyltin hydroxide], the Efficacy turned out to be 94.7%. The “Potency rank in the MMP screen” value (HepG2 cells, 1 hr treatment) is listed as “among the most potent compounds”. Moreover, under “read-out: Potency”, the IC50 is 122 nM. For `CC1(C)C(C(Cl)Cl)C2(Cl)C(Cl)C(Cl)C1(Cl)C2(Cl)Cl` (centres unmarked) [toxaphene], where the note is “HepG2 cells, 1 hr treatment”, the “MMP assay activity outcome (active antagonist / inactive / inconclusive)” value is on record as “active as antagonists”. On to `O=C(c1ccccc1O)c1ccccc1O` [2,2´-dihydroxybenzophenone], for which the IC50 under setting [1] turned out to be 14100 nM. On to `COc1ccc(Cc2nccc3cc(OC)c(OC)cc23)cc1OC` [papaverine, reference compound], for which the “MMP assay activity outcome (active antagonist / inactive / inconclusive)” value (HepG2 cells, 1 hr treatment) was “inconclusive antagonist (cytotoxic)”. The same measure, in the same setting: as for `COc1ccc(C(=O)c2ccccc2)c(O)c1` [2-hydroxy-4-methoxybenzophenone], the entry is “not active”. The same measure, in the same setting: the result for `O=C(c1ccc(O)cc1)c1ccc(O)cc1` [4,4´-dihydoxybenzophenone] reads “inconclusive”. `CCN1/C(=C/C=C/c2ccc3ccccc3[n+]2CC)C=Cc2ccccc21.[I-]` [carbocyanine, Carbocyanine]: the Efficacy under setting [2] was found to be 90.7%. For the same compound, the IC50 under setting [3] was found to be 14.7 nM. On to `O=C1c2c(O)ccc([N+](=O)[O-])c2C(=O)c2c([N+](=O)[O-])ccc(O)c21` [1,8-Dihydroxy-4,5-dinitroanthraquinone], for which the Efficacy is recorded as 86.4%. In addition, the IC50 (read-out: Potency) is 73.4 nM. With `O=[N+]([O-])c1ccc(O)c([N+](=O)[O-])c1` [dinitrophenol, reference compound], the “MMP assay activity outcome (active antagonist / inactive / inconclusive)” value (HepG2 cells, 1 hr treatment) is reported as “inconclusive antagonist (cytotoxic)”. With `CCCCCOC(=O)c1ccc(O)cc1` [pentylparaben], the IC50 under setting [1] was 8700 nM.

Consider Methyl violet, for which the Efficacy worked out at 121.5%. For the same compound, the “Potency rank in the MMP screen” value (HepG2 cells, 1 hr treatment) is “among the most potent compounds”. In addition, where the note is “read-out: Potency”, the IC50 turned out to be 65.3 nM. On to `CC(C)(c1ccccc1)c1ccc(O)cc1` [4-(1-methyl-1-phenylethyl)phenol], for which the “MMP assay activity outcome (active antagonist / inactive / inconclusive)” value (HepG2 cells, 1 hr treatment) was “active”. In the case of `CCOCn1c(-c2ccc(Cl)cc2)c(C#N)c(Br)c1C(F)(F)F` [Chlorfenapyr], the Emax (Homo sapiens, HepG2, 1 h) worked out at 105%. In addition, under setting [4], the IC50 amounted to 74.1 nM.

Regarding `O=C1OC2(c3ccc(O)cc3Oc3cc(O)ccc32)c2ccccc21` [Fluorescein], the Emax (Homo sapiens, HepG2, 1 h) is 112%. Further, the IC50 under setting [4] amounted to 105 nM. Turning to `O=C(c1ccccc1)c1ccc(O)cc1` [4-hydroxybenzophenone], the IC50 under setting [1] is 41300 nM.

For the compound `CCC[CH2][Sn]([Cl])([CH2]CCC)[CH2]CCC` [Tributyltin chloride], the Efficacy came to 96.9% and the “Potency rank in the MMP screen” value is “among the most potent compounds”. The IC50 (read-out: Potency) was 107 nM. As to `Cl.N=C1C=CC(=C(c2ccc(N)cc2)c2ccc(N)cc2)C=C1` [C.I. Basic red 9 monohydrochloride], the “Potency rank in the MMP screen” value (HepG2 cells, 1 hr treatment) is listed as “among the most potent compounds”. Further, under setting [2], the Efficacy is 95.3%. The IC50 under setting [3] turned out to be 77 nM. Take `C[C@@H]1O[C@@H](O[C@@H]2C=C3CC[C@@H]4[C@H](CC[C@]5(C)[C@@H](c6ccc(=O)oc6)CC[C@]45O)[C@@]3(C)CC2)[C@H](O)[C@H](O)[C@H]1O` [Proscillaridin, reference compound]: the “Potency rank in the MMP screen” value (HepG2 cells, 1 hr treatment) is listed as “among the most potent compounds”. The Emax (Homo sapiens, HepG2, 1 h) was found to be 72.4%. Besides, the IC50 under setting [4] amounted to 86.8 nM. For `O=C(c1ccc(Cl)cc1)c1ccc(Cl)cc1` [4,4´-dichlorobenzophenone], the “MMP assay activity outcome (active antagonist / inactive / inconclusive)” value (HepG2 cells, 1 hr treatment) was “inactive”. Take `Cc1ccc(C(=O)c2ccccc2)cc1` [4-methylbenzophenone]: where the note is “HepG2 cells, 1 hr treatment”, the “MMP assay activity outcome (active antagonist / inactive / inconclusive)” value was “inactive”. For `CC(=O)[O][Sn]([c]1ccccc1)([c]1ccccc1)[c]1ccccc1` [Triphenyltin acetate], the Efficacy is recorded as 98.7%. Further, the “Potency rank in the MMP screen” value (HepG2 cells, 1 hr treatment) was “among the most potent compounds”. The IC50 (read-out: Potency) stood at 117 nM.

The values are drawn from publication PMC4286281, “Profiling of the Tox21 Chemical Collection for Mitochondrial Function to Identify Compounds that Acutely Decrease Mitochondrial Membrane Potential” (Environmental Health Perspectives, 2014).
